Structures can show the parent of a compound that is named as a salt.
Biological target: T1, human PAR-2 (hPAR-2) receptor expressed in HEK-293 T cells in an endogenous manner (Homo sapiens, UniProt P55085)
T1 construct: human PAR-2 (hPAR-2) receptor expressed in HEK-293 T cells in an endogenous manner; endogenous in cells; host or cells: HEK-293 T cells
T1 sequence (P55085 26-397): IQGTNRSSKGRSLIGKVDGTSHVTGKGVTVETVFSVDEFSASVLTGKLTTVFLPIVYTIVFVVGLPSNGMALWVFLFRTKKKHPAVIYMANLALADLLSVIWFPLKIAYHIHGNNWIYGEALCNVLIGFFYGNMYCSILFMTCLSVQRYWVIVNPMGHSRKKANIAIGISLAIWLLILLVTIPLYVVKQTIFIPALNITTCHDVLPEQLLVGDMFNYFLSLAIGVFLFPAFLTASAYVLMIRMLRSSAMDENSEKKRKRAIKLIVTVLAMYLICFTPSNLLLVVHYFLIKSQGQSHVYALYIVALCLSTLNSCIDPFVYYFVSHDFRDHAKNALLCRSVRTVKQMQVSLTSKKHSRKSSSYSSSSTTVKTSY
Assay: In vitro human PAR-2 functional antagonist activity using calcium assays (Fluo4AM, FLIPR Tetra)
Type: cell-based
Details: HEK-293 T cells stimulated by an EC80 of the 2-Furoyl-LIGRLO-NH2 peptide after 10 min incubation with compound; 20 concentrations, duplicate, two independent experiments
Experimental: In vitro human PAR-2 functional antagonist activity using calcium assays
Examples of the present invention were tested successively for their agonist and antagonist activities on human PAR-2 (hPAR-2) receptor expressed in HEK-293 T cells in an endogenous manner. Compounds exert agonist activity if, by themselves in absence of the 2-Furoyl-LIGRLO-NH2 peptide (selective hPAR-2 agonist), they activate PAR-2; they exert antagonist activity if they decrease the action of the 2-Furoyl-LIGRLO-NH2 peptide on the receptor. The assay used to determine compound activity is based on calcium measurement.
Cell Culture: HEK-293 T cells were maintained in Dulbecco's Modified Eagle's Medium supplemented with 10% Foetal Calf Serum, 1% Penicillin/Streptomycin at 37° C./5% CO2. Flasks for tests (F75) are seeded with 6e+06 cells 24 h before the experiment at 37° C./5% CO2.
Calcium assay: Receptor activity was detected by changes in intracellular calcium measured using the fluorescent Ca^2+ sensitive dye, Fluo4AM (Molecular Probes).
The day of the assay, medium was replaced by assay buffer (HBSS 1× (Gibco 14175-053), Hepes 20 mM, MgSO4-7H2O 1 mM, Na2CO3 3.3 mM, CaCl2-2H2O 1.3 mM, 0.5% BSA, Probenecid 2.5 mM, 0.1 mg/mL Pluronic Acid) and complemented with 1 μM Fluo4AM and cells were incubated during 1:30 h at 37° C.
Cells were then detached, resuspended in assay buffer and seeded in 384 wells, transparent-flat bottom black walled plates (2e+04 cells per well). Plates were incubated at +22° C. for 20 min. Compounds stock solutions were prepared in 100% DMSO and dilutions in test buffer were carried out in polypropylene plates with a digital dispenser (D300e, Tecan). Compounds were added to the cells and intracellular Ca^2+ measurements were collected at the same time on FLIPR Tetra® (Molecular Devices) with specific filters (Exc: 470-495 nm/Em: 515-575 nm).
Agonist and antagonist activities of compounds were consecutively evaluated on the same cell plate. Agonist activity was first measured after 10 min incubation with the compound alone. Then, cells were stimulated by an EC80 of the 2-Furoyl-LIGRLO-NH2 peptide and fluorescence was recorded for an additional 5 min. EC80 of the 2-Furoyl-LIGRLO-NH2 peptide was the concentration giving 80% of the maximal 2-Furoyl-LIGRLO-NH2 response. Agonist activities are evaluated in comparison to basal signals evoked by assay buffer or maximal 2-Furoyl-LIGRLO-NH2 response. […] Antagonist activities are evaluated in comparison to basal signals evoked by assay buffer or EC80 of 2-Furoyl-LIGRLO-NH2 alone.

Compound | IC50
CC(C)(C)c1nn(-c2ccc(Cl)c(F)c2)c2ncc(C(=O)N3CCNC(=O)C3(C)C)cc12 [Example 80, 4-(3-(tert-butyl)-1-(4-chloro-3-fluorophenyl)-1H-pyrazolo[3,4-b]pyridine-5-carbonyl)-3,3-dimethylpiperazin-2-one] | 20 to 10000 nM
CC(C)Cn1cc(C2=CCN(C)CC2)c2ccc(C(=O)N3CCNC(=O)C3(C)C)nc21 [Example 91, 4-(1-isobutyl-3-(1-methyl-1,2,3,6-tetrahydropyridin-4-yl)-1H-pyrrolo[2,3-b]pyridine-6-carbonyl)-3,3-dimethylpiperazin-2-one hydrochloride] | > 10000 nM
COc1ccc(-c2cn(CC(C)C)c3nc(C(=O)N4CCNC(=O)C4(C)C)ccc23)cc1OC [Example 145, 4-(3-(3,4-dimethoxyphenyl)-1-isobutyl-1H-pyrrolo[2,3-b]pyridine-6-carbonyl)-3,3-dimethylpiperazin-2-one] | > 10000 nM
Cc1cc(N2CCN(C(=O)c3ccc4c(-c5ccc(Cl)c(F)c5)cn(Cc5cnccn5)c4n3)C(C)(C)C2)nc(C)c1C(=O)O [Example 103, 6-(4-(3-(4-chloro-3-fluorophenyl)-1-(pyrazin-2-ylmethyl)-1H-pyrrolo[2,3-b]pyridine-6-carbonyl)-3,3-dimethylpiperazin-1-yl)-2,4-dimethylnicotinic acid] | 20 to 10000 nM
Cc1cccc(Cn2cc(-c3ccc(Cl)c(F)c3)c3ccc(C(=O)N4CCN(c5cc(C)c(C(=O)O)c(C)n5)CC4(C)C)nc32)n1 [Example 192, 6-(4-(3-(4-chloro-3-fluorophenyl)-1-((6-methylpyridin-2-yl)methyl)-1H-pyrrolo[2,3-b]pyridine-6-carbonyl)-3,3-dimethylpiperazin-1-yl)-2,4-dimethylnicotinic acid hydrochloride] | < 20 nM
CC(C)Cc1nn(-c2ccc(Cl)c(F)c2)c2ccc(C(=O)N3CCNC(=O)C3)nc12 [Example 88, 4-(1-(4-chloro-3-fluorophenyl)-3-isobutyl-1H-pyrazolo[4,3-b]pyridine-5-carbonyl)piperazin-2-one] | > 10000 nM
CC(C)(C)n1cc(-c2ccc(Cl)c(F)c2)c2ccc(C(=O)N3[C@@H]4CC[C@H]3CC(O)C4)nc21 (stereo partly drawn) [Example 11, (1-(tert-butyl)-3-(4-chloro-3-fluorophenyl)-1H-pyrrolo[2,3-b]pyridin-6-yl)((1R,3r,5S)-3-hydroxy-8-azabicyclo[3.2.1]octan-8-yl)methanone] | > 10000 nM
Cc1cc(N2CCN(C(=O)c3ccc4c(-c5ccc(Cl)c(F)c5)cn(Cc5ncccn5)c4n3)C(C)(C)C2)nc(C)c1C(=O)O [Example 158, 6-(4-(3-(4-chloro-3-fluorophenyl)-1-(pyrimidin-2-ylmethyl)-1H-pyrrolo[2,3-b]pyridine-6-carbonyl)-3,3-dimethylpiperazin-1-yl)-2,4-dimethylnicotinic acid] | 20 to 10000 nM
Cc1cc(N2CCN(C(=O)c3ccc4c(-c5ccc(Cl)c(F)c5)cn(Cc5ccncc5)c4n3)C(C)(C)C2)nc(C)c1C(=O)O [Example 149, 6-(4-(3-(4-chloro-3-fluorophenyl)-1-(pyridin-4-ylmethyl)-1H-pyrrolo[2,3-b]pyridine-6-carbonyl)-3,3-dimethylpiperazin-1-yl)-2,4-dimethylnicotinic acid] | 20 to 10000 nM
Cc1cc(N2CCN(C(=O)c3cnc4c(-c5ccc(Cl)c(F)c5)cn(CC(C)C)c4n3)C(C)(C)C2)nc(C)c1C(=O)O [Example 190, 6-(4-(7-(4-chloro-3-fluorophenyl)-5-isobutyl-5H-pyrrolo[2,3-b]pyrazine-3-carbonyl)-3,3-dimethylpiperazin-1-yl)-2,4-dimethylnicotinic acid] | < 20 nM
Cc1cc(N2CCN(C(=O)c3ccc4c(n3)c(C(C)(C)C)cn4-c3ccc(Cl)c(F)c3)C(C)(C)C2)nc(C)c1C(=O)O [Example 185, 6-(4-(3-(tert-butyl)-1-(4-chloro-3-fluorophenyl)-1H-pyrrolo[3,2-b]pyridine-5-carbonyl)-3,3-dimethylpiperazin-1-yl)-2,4-dimethylnicotinic acid] | < 20 nM
CC(C)Cn1cc(-c2ccc(Cl)cc2)c2ccc(C(=O)N3CCNC(=O)C3(C)C)nc21 [Example 54, 4-[3-(4-chlorophenyl)-1-isobutyl-pyrrolo[2,3-b]pyridine-6-carbonyl]-3,3-dimethyl-piperazin-2-one] | 20 to 10000 nM

More lines, now with the values ahead:

IC50 | Compound
< 20 nM | Cc1cc(N2CCN(C(=O)c3ccc4c(-c5ccc(Cl)c(F)c5)cn(C(C)(C)c5ccccn5)c4n3)C(C)(C)C2)nc(C)c1C(=O)O [Example 131, 6-(4-(3-(4-chloro-3-fluorophenyl)-1-(2-(pyridin-2-yl)propan-2-yl)-1H-pyrrolo[2,3-b]pyridine-6-carbonyl)-3,3-dimethylpiperazin-1-yl)-2,4-dimethylnicotinic acid]
< 20 nM | COC[C@@H](C)n1cc(-c2ccc(Cl)c(F)c2)c2ccc(C(=O)N3CCN(c4cc(C)c(C(=O)O)c(C)n4)CC3(C)C)nc21 [Example 140, (R)-6-(4-(3-(4-chloro-3-fluorophenyl)-1-(1-methoxypropan-2-yl)-1H-pyrrolo[2,3-b]pyridine-6-carbonyl)-3,3-dimethylpiperazin-1-yl)-2,4-dimethyinicotinic acid]
< 20 nM | CC(C)(C)n1cc(-c2ccc(Cl)c(F)c2)c2ccc(C(=O)N3C[C@@H]4[C@@H](CC(=O)O)[C@@H]4C3)nc21 [Example 124, 2-((1R,5S,6s)-3-(1-(tert-butyl)-3-(4-chloro-3-fluorophenyl)-1H-pyrrolo[2,3-b]pyridine-6-carbonyl)-3-azabicyclo[3.1.0]hexan-6-yl)acetic acid]
20 to 10000 nM | COC(=O)C1CCN(C(=O)c2ccc3c(-c4ccc(Cl)c(F)c4)cn(C(C)(C)C)c3n2)CC1(C)C (stereo not shown) [Example 21, methyl 1-(1-(tert-butyl)-3-(4-chloro-3-fluorophenyl)-1H-pyrrolo[2,3-b]pyridine-6-carbonyl)-3,3-dimethylpiperidine-4-carboxylate]
< 20 nM | Cc1cc(N2CCN(C(=O)c3ccc4c(-c5ccc(Cl)c(F)c5)cn(C5CCOCC5)c4n3)C(C)(C)C2)nc(C)c1C(=O)O [Example 98]
< 20 nM | CC(C)N1CNC(=O)C12CCN(C(=O)c1ccc3c(-c4ccc(Cl)c(F)c4)cn(C(C)(C)C)c3n1)CC2 [Example 207, 8-(1-(tert-butyl)-3-(4-chloro-3-fluorophenyl)-1H-pyrrolo[2,3-b]pyridine-6-carbonyl)-1-isopropyl-1,3,8-triazaspiro[4.5]decan-4-one]
20 to 10000 nM | CCOCCn1cc(-c2ccc(Cl)c(F)c2)c2ccc(C(=O)N3CCNC(=O)C3(C)C)nc21 [Example 42, 4-(3-(4-chloro-3-fluorophenyl)-1-(2-ethoxyethyl)-1H-pyrrolo[2,3-b]pyridine-6-carbonyl)-3,3-dimethylpiperazin-2-one]
20 to 10000 nM | CC1(C)CCCN1C(=O)c1ccc2c(-c3ccc(Cl)c(F)c3)cn(C(C)(C)C)c2n1 [Example 16, (1-(tert-butyl)-3-(4-chloro-3-fluorophenyl)-1H-pyrrolo[2,3-b]pyridin-6-yl)(2,2-dimethylpyrrolidin-1-yl)methanone]
20 to 10000 nM | CC1(C)CN(C(=O)c2ccc(C(=O)O)cn2)CCN1C(=O)c1ccc2c(-c3ccc(Cl)c(F)c3)cn(C(C)(C)C)c2n1 [Example 169, 6-(4-(1-(tert-butyl)-3-(4-chloro-3-fluorophenyl)-1H-pyrrolo[2,3-b]pyridine-6-carbonyl)-3,3-dimethylpiperazine-1-carbonyl)nicotinic acid]
> 10000 nM | Cc1cc(N[C@@H]2CCN(C(=O)c3ccc4c(-c5ccc(Cl)c(F)c5)cn(C(C)(C)C)c4n3)C2)nc(C)c1C(=O)O [Example 153, (R)-6-((1-(1-(tert-butyl)-3-(4-chloro-3-fluorophenyl)-1H-pyrrolo[2,3-b]pyridine-6-carbonyl)pyrrolidin-3-yl)amino)-2,4-dimethylnicotinic acid]
